In series [1] the test system is P. falciparum drug-sensitive D6 strain. The series can be described thus: SYBR Green I antiplasmodial assay, D6 strain. Format: cell-based. Conditions: Plasmodium falciparum, D6, 72 h, read-out: P. falciparum IC50 values, D6. The method, then: (§1) All of this information is stored in a database with information relating to chemical structure, physical chemical properties, cross resistance patterns, mammalian cell cytotoxicity, enzyme inhibitor profiles, and synthesis details. Pharmacological data and in vivo efficacy data are also stored in the database for molecules of particular interest. […] We synthesized the compound in an initial batch size of about 800 mg as described above. […] Fluorescence readings were captured with a fluorescence plate reader and processed by nonlinear regression analysis using the GraphPad Prism software to provide IC50 values for each determination. Stock solutions were freshly prepared daily in DMSO in glass vials.
(§2) Laboratory strains of P. falciparum were cultured in human erythrocytes by standard methods. The parasites were grown in culture medium with fresh human erythrocytes maintained at 2% hematocrit at 37 °C in low-oxygen conditions (5% O2, 5% CO2, 90% N2). […] Cultures were maintained at less than 10% parasitemia by transfer of infected cells to fresh erythrocytes and culture medium every 3 or 4 days.
(§3) SYBR green I assay. In vitro antiplasmodial activity was assessed using a published SYBR Green I fluorescence-based method.[20] The drugs were added to 96-well plates using twofold serial dilutions in complete medium. […] Asynchronous P. falciparum parasites were diluted with uninfected erythrocytes and added to the wells to give a final culture volume of 100 μL at 2% hematocrit and 0.2% parasitemia. […] The parasites were then lysed by adding 100 μL of SYBR green I lysis buffer containing 0.2 μL/ml SYBR green I dye (10,000×) in 20 mM Tris (pH 7.5), 5 mM EDTA, 0.008% (wt/vol) saponin, and 0.08% (v/v) Triton X-100. The plates were incubated at room temperature for an hour in the dark. […] If the IC50 value fell outside of the initially tested range, then the range was adjusted up or down, and the assay was repeated twice.

Series [2] concerns P. falciparum multidrug-resistant Dd2 strain. The series can be described thus: microbe, parasite or virus in culture. Format: cell-based. Particulars: Plasmodium falciparum, DD2, 72 h, read-out: P. falciparum IC50 values, Dd2. The protocol:
as §1, §2, §3

The test system of series [3] is P. falciparum atovaquone-resistant clinical isolate Tm90-C2B. In words: SYBR Green I antiplasmodial assay, Tm90-C2B. Format: cell-based. Particulars: Plasmodium falciparum, TM90, 72 h, read-out: P. falciparum IC50 values, Tm90-C2B. The protocol: as §1, §2, §3
Series [4] concerns P. falciparum ELQ-300-resistant D1 clone. In words: microbe, parasite or virus in culture. The class given is cell-based. Particulars: Plasmodium falciparum, 72 h, read-out: P. falciparum IC50 values, D1.
The nature of series [5]: HepG2 cytotoxicity / mitochondrial toxicity (TiterGlo ATP, galactose medium). Particulars: human.
Experimental: HepG2 was routinely cultured in DMEM containing 10% fetal calf serum and 100 IU/mL penicillin and 100 μg/mL streptomycin (complete medium). For studies to investigate the potential for mitochondrial toxicity by selected 3-biaryl-ELQs, the medium contained galactose rather than glucose to force the cells to produce ATP through oxidative phosphorylation, which in turn makes them sensitive to mitochondrial toxicants.[36] […] After this period, the culture medium was removed, and the cells were shifted to galactose-containing medium with test drugs at concentrations ranging from 0 to 10 μM. Drug dilutions were prepared from DMSO stocks into galactose-containing medium. […] After incubation, the contents of each well were removed, and 25 μL of TiterGlo II reagent mix containing luciferase, detergent, and luciferin was added to each well along with 25 μL of culture medium. […] At this point, the plates were read on a luminometer (SpectraMax iD3 iD5Multi-Mode Microplate Reader), and the data were processed to yield the percent decrease in ATP production relative to no-drug control values. These values reflect the potential damage caused by mitochondrial toxicants due to reduced intracellular ATP levels caused by interference with the human mitochondrial electron transport chain. Assays were set up in triplicate.

As a reminder, the IC50 is the concentration needed to halve the response being measured. Regarding `Cc1[nH]c2cc(F)cc(F)c2c(=O)c1-c1ccc(-c2ccc(OC(F)(F)F)cc2)cc1` [ELQ-601, 5,7-Difluoro-2-methyl-3-(4′-(trifluoromethoxy)-[1,1′-biphenyl]-4-yl)quinolin-4(1H)-one], the half-inhibitory concentration (IC50) in series [1] was 5.9 nM; in series [2], 14.3 nM; in series [3] it was 24.5 nM; in series [4], 9.3 nM.
Consider `COc1cc2[nH]c(C)c(-c3ccc(-c4ccc(C#N)cc4)cc3)c(=O)c2cc1Cl` [ELQ-602, 4′-(6-Chloro-7-methoxy-2-methyl-4-oxo-1,4-dihydroquinolin-3-yl)-[1,1′-biphenyl]-4-carbonitrile], for which the IC50 in series [1] is 4.8 nM; in series [2], 25.2 nM; in series [3], 10.9 nM; in series [4], more than 250 nM.
As for `COc1cc2[nH]c(C)c(-c3ccc(-c4ccc(C)cc4)cc3)c(=O)c2cc1Cl` [ELQ-603, 6-Chloro-7-methoxy-2-methyl-3-(4′-methyl-[1,1′-biphenyl]-4-yl)quinolin-4(1H)-one], the half-inhibitory concentration (IC50) in series [1] was 1 nM; in series [2], 3.8 nM; in series [3], 1.5 nM; in series [4], more than 250 nM.
Take `COc1ccc(-c2ccc(-c3c(C)[nH]c4cc(OC)c(Cl)cc4c3=O)cc2)cc1` [ELQ-645, 6-Chloro-7-methoxy-3-(4′-methoxy-[1,1′-biphenyl]-4-yl)-2-methylquinolin-4(1H)-one]: the IC50 in series [1] is 5 nM; in series [2], 10.2 nM; in series [3], 6 nM; in series [4], more than 250 nM.
With `Cc1[nH]c2ccccc2c(=O)c1-c1ccc(-c2ccc(OC(F)(F)F)cc2)cc1` [ELQ-649, 2-Methyl-3-(4′-(trifluoromethoxy)-[1,1′-biphenyl]-4-yl)quinolin-4(1H)-one], the half-maximal inhibitory concentration (IC50) in series [1] is 7.9 nM; in series [2], 8.3 nM; in series [3], 6 nM; in series [4] it was 15.8 nM.
`COc1cc2[nH]c(C)c(-c3ccc(-c4ccc(C(C)(C)C)cc4)cc3)c(=O)c2cc1Cl` [ELQ-651, 3-(4′-(tert-Butyl)-[1,1′-biphenyl]-4-yl)-6-chloro-7-methoxy-2-methylquinolin-4(1H)-one]: the IC50 is 1.1 nM in series [1], 1.4 nM in series [2], 0.49 nM in series [3] and more than 250 nM in series [4].
As to `COc1cc2[nH]c(C)c(-c3ccc(-c4ccc(Oc5ccc(OC(F)(F)F)cc5)cc4)cc3)c(=O)c2cc1Cl` [ELQ-653, 6-Chloro-7-methoxy-2-methyl-3-(4′-(4-(trifluoromethoxy)phenoxy)-[1,1′-biphenyl]-4-yl)quinolin-4(1H)-one], the IC50 in series [1] was 1.5 nM; in series [2] it was 1.4 nM; in series [3] it was 0.88 nM; in series [4] it was more than 250 nM.
For `Cc1[nH]c2c(c(=O)c1-c1ccc(-c3ccc(OC(F)(F)F)cc3)cc1)CCCC2` [ELQ-660] the same measures were 14.8 nM, 12.8 nM, 7.9 nM and 22.2 nM.
As for `COc1cc2[nH]c(C)c(-c3ccc(-c4cccc(S(F)(F)(F)(F)F)c4)cc3)c(=O)c2cc1Cl` [ELQ-662, 6-Chloro-7-methoxy-2-methyl-3-(3′-(pentafluorosulfanyl)-[1,1′-biphenyl]-4-yl)quinolin-4(1H)-one], the 50% inhibitory concentration (IC50) in series [1] was 0.7 nM; in series [2], 1.3 nM; in series [3], 1.4 nM; in series [4], more than 250 nM.
Consider `COc1cc2[nH]c(C)c(-c3ccc(-c4ccc(S(F)(F)(F)(F)F)cc4)cc3)c(=O)c2cc1Cl` [ELQ-663, 6-Chloro-7-methoxy-2-methyl-3-(4′-(pentafluorosulfanyl)-[1,1′-biphenyl]-4-yl)quinolin-4(1H)-one], for which the IC50 in series [1] was 1.6 nM; in series [2], 3.2 nM; in series [3], 3.8 nM; in series [4], more than 250 nM.
In series [5], `C=C(C)[C@H]1Cc2c(ccc3c2O[C@@H]2COc4cc(OC)c(OC)cc4[C@@H]2C3=O)O1` [rotenone, reference compound] came in with an IC50 at 24 h of less than 1000 nM.

These data come from publication PMC11245370, “3-Position Biaryl Endochin-like Quinolones with Enhanced Antimalarial Performance” (ACS Infectious Diseases, 2024).
